The subject of data set [1] is A. baumannii. Put plainly: MIC by broth dilution, A. baumannii. In kind it is cell-based. Conditions: Acinetobacter baumannii, Mueller-Hinton broth. Put shortly: (§1)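 Broth dilution in Mueller-Hinton broth with 2-fold compound steps over 1–256 μg/mL (final) and 5×10^5 CFU/mL inoculum, incubated overnight at 37 °C. The MIC is the lowest concentration without visible turbidity, from at least biological duplicates of technical triplicates. A parallel series was supplemented with 5% (final) human plasma.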
A general note: Broth dilution looks for growth in wells or tubes with falling amounts of substance.

The test system of data set [2] is A. baumannii. The experiment in a line: MIC by broth dilution in presence of 5% human plasma (esterases), A. baumannii. In kind it is cell-based. Conditions: for Δ MIC A. baumannii + human plasma: broth supplemented with 5% human plasma (esterases) vs no plasma. As for the experimental part:
The antibacterial efficacy of ammonium compounds in the presence of human plasma was assessed. Minimum inhibitory concentrations (MICs) were determined by broth dilution method. Dilutions of each compound, ranging from 1 μg/mL to 256 μg/mL (final concentrations) were prepared in Mueller-Hinton broth. For the plasma containing samples, compound dilutions were made in Mueller-Hinton broth and supplemented with 5% (final %) human plasma (esterases). Compound dilutions were added to wells of a 96-well plate, with the concentration of the compound increasing 2-fold by row. Each well contained 5×10^5 CFU/mL of target bacterium in a total volume of 100 μL. Plates were incubated overnight at 37° C. The following day, plates were evaluated for a visual change in growth to determine the MIC. The concentration value corresponding to the first row that no longer had visible bacterial growth, as evaluated by turbidity in the wells, was recorded as the MIC. MIC values were representative of at least biological duplicates, each made up of technical triplicates.

Data set [3] concerns human red blood cell. Put plainly: In vitro hemolysis assay. It counts as cell-based. The settings on record: for % hemolysis at 16 μg/ml / % hemolysis at 32 μg/ml: human RBCs, 37° C., 1 hour; for hemolysis as compared to otilonium bromide (11), in words: 16 and 32 μg/mL; for reduction in hemolysis as compared to otilonium bromide (11): at 32 μg/mL. As to the method: The hemolytic potential of ammonium compounds were assessed in vitro. A human red blood cell solution (RBC) was prepared by washing 400 μL of fresh RBCs twice with 7 mL of 1×PBS (pH 7.4) by centrifugation at 4° C., 2500 rpm for 10 minutes. The precipitates were then resuspended in 4 mL of 1×PBS. Hemolysis testing was performed by mixing 500 μL of freshly prepared test compound solutions at a final concentration of both 16 μg/mL and 32 μg/mL in 1×PBS with 400 μL of the washed human RBCs. Two control samples were prepared by separately mixing 400 μL of washed RBCs with 500 μL of 1×PBS (negative control) and 1% Triton X-100 (w/v). After incubation in a water bath at 37° C. for 1 hour, the samples were centrifuged at 2500 rpm for 10 minutes. 300 μL of the supernatant were collected for measurement in a 96-well plate. The release of hemoglobin was assessed by measuring the absorbance of the samples at 540 nm using 1×PBS as the blank. Hemolysis percent was calculated using Equation 1: […]

Data set [4] deals with S. aureus. Put plainly: MIC by broth dilution, S. aureus. Conditions: for MIC: Staphylococcus aureus, Mueller-Hinton broth. In kind it is cell-based. Put shortly: as §1
For data set [5], the system named is enterotoxigenic Escherichia coli (ETEC). Put plainly: Mouse assay, oral inoculation with ETEC, viable bacteria in intestines. The settings on record: neonate CD-1 mice, 10^7 CFU oral, compound co-administered at 1 mg/kg, intestines harvested after 4 hours. In kind it is in vivo. As to the method:
(§2) Mouse assays were used to evaluate the in vivo activity of compound 95. Male and female neonate CD-1 mice were orally innoculated with 10^7 colony forming units of enterotoxigenic Escherichia coli (ETEC) (FIG. 2A) or vancomycin-resistant enterococcus (VRE) (FIG. 2B) and co-administered compound 95 at 1 mg/kg. Intestines were harvested after 4 hours and plated to determine viable bacteria.

Data set [6] concerns vancomycin-resistant enterococcus (VRE). The experiment in a line: Mouse assay, oral inoculation with VRE, viable bacteria in intestines. It counts as in vivo. Conditions: neonate CD-1 mice, 10^7 CFU oral, compound co-administered at 1 mg/kg, intestines harvested after 4 hours. As for the experimental part: as §2
[7] abbreviates: no plasma, Table 2, read-out: MIC (μg/ml) A. baumannii.
The mark [8] stands for this setting: overnight 37° C., Table 1, read-out: MIC (μg/mL) A. baumannii.
Where [9] appears, read: no plasma, Table 2, read-out: MIC (μg/ml) S. aureus.
[10] abbreviates: overnight 37° C., Table 1, read-out: MIC (μg/mL) S. aureus.

Read-outs that look alike come from different tables or passages of the source.

On to `CCCCCCOc1ccccc1C(=O)Nc1ccc(C(=O)OCC[N+](CC)(CC)CCCCC)cc1.[Br-]` [Compound 68, N,N-Diethyl-N-(2-((4-(2-(hexyloxy)benzamido)benzoyl)oxy)ethyl)pentan-1-aminium bromide], for which the MIC in data set [1] (setting [7]) was 3 to 30 µg/mL; in data set [1] (setting [8]) it was 3 to 30 µg/mL; in data set [4] (setting [9]), less than 3 µg/mL; in data set [4] (setting [10]), less than 3 µg/mL. Besides, the “stability in the presence of enzymes that are found in the gut, compared with otilonium bromide (11), in words” value in data set [2] (5% human plasma) was “better stability than otilonium bromide”. In data set [2], the “Δ MIC A. baumannii + human plasma” value stood at 8X. In addition, the “% hemolysis at 16 μg/ml” value in data set [3] amounted to 2%. The “% hemolysis at 32 μg/ml” value in data set [3] amounted to 5%. Further, the “hemolysis as compared to otilonium bromide (11), in words” value in data set [3] is “reduced hemolysis as compared to otilonium bromide”. Further, in data set [3], the “reduction in hemolysis as compared to otilonium bromide (11)” value is listed as 94%. The “antimicrobial activity against Gram positive S. aureus relative to otilonium bromide, in words” value in data set [4] was “comparable or better than the activity of otilonium bromide”. Besides, the “selectivity for Gram positive microbes over Gram negative microbes, in words” value in data set [4] (S. aureus vs A. baumannii) is on record as “improved selective for Gram positive microbes over Gram negative microbes”.

`CCCCCCCOc1cc(F)ccc1C(=O)Nc1ccc(S(=O)(=O)NCC[N+](CC)(CC)CCCC)cc1.[Br-]` [Compound 95, N,N-Diethyl-N-(2-((4-(4-fluoro-2-(heptyloxy)benzamido)phenyl)sulfonamido)-ethyl)butan-1-aminium bromide]: the “viability and colonization of ETEC in intestines” value in data set [5] is “significantly decreased viablity and colonization”. The “viability and colonization of VRE in intestines” value in data set [6] was “significantly decreased viablity and colonization”. Moreover, in data set [1] (setting [7]), the MIC is 3 to 30 µg/mL. Moreover, the MIC in data set [1] (setting [8]) lay in the range of 3 to 30 µg/mL. The “stability in the presence of enzymes that are found in the gut, compared with otilonium bromide (11), in words” value in data set [2] (5% human plasma) is reported as “better stability than otilonium bromide”. Moreover, the increase in stability entry in data set [2] (5% human plasma, vs otilonium bromide (11)) was “four- to eight-fold”. Moreover, the “Δ MIC A. baumannii + human plasma” value in data set [2] was 2X. For the same compound, in data set [3], the “% hemolysis at 16 μg/ml” value amounted to 3%; the “% hemolysis at 32 μg/ml” value is 14%; the “hemolysis as compared to otilonium bromide (11), in words” value is “reduced hemolysis as compared to otilonium bromide”; the “reduction in hemolysis as compared to otilonium bromide (11)” value was 85%. For the same compound, the “antimicrobial activity against Gram positive S. aureus relative to otilonium bromide, in words” value in data set [4] is listed as “comparable or better than the activity of otilonium bromide”. Moreover, the MIC in data set [4] (setting [9]) lay within 3 to 30 µg/mL. Moreover, in data set [4] (setting [10]), the MIC is 3 to 30 µg/mL.

The record behind these values is patent publication US11952330B2, “Antibiotic ammonium compounds and methods for the treatment of bacterial infections” (priority 2019, dated 2024).
